# Test results: patent US20230158042A1, “COMBINATION CANCER THERAPY WITH PENTAAZA MACROCYCLIC RING COMPLEX AND HORMONE THERAPY AGENT” (Galera Labs, LLC, priority 2020, published 2023)
# Key:
# MCF7-HTR cells = experiment: Clonogenic cell survival, hydroxy-Tam-resistant MCF7 cells with GC4419; format: cell-based, human; conditions: 5 µM GC4419 for 5 days; 1 µM hydroxy-Tam
# Description: Clonogenic cell survival assay. For the clonogenic survival analysis, exponentially growing cells were replated using appropriate dilutions, and clonogenic survival was evaluated after 14 days in regular growth medium. Cells were stained with crystal violet, and colonies of >50 cells were counted and utilized to calculate clonogenic survival^46.
# To test parameters indicative of oxidative stress, a clonogenic assay with hydroxy-Tam and MnPAM dismutase mimetic treatments was performed. Cells were plated at a density of 50,000 cells per 60-mm dish and treated with 1 µM hydroxy-Tam (Sigma) and 5 µM GC4419 (Galera Therapeutics) for a total of 120 h. This protocol was repeated with a fresh medium change every 24 h for 5 days. On day 6, the cells were trypsinized, counted, and replated in control medium using appropriate dilutions, and clonogenic survival was evaluated.
# MCF7-Cispl-R cells [1] = experiment: SOX2 and OCT4 levels in cisplatin-resistant MCF7 cells; format: cell-based, human; conditions: data not shown
# MCF7-Cispl-R cells [2] = experiment: Cell ROS levels in cisplatin-resistant MCF7 cells; format: cell-based, human; conditions: data not shown
# Description: (§1) FIGS. 27a-27c are an image and graphs showing that MnSOD—AcK68/ROS/HIF2α dysregulation directs PanR (multi-therapy resistance to cancer therapeutics). […] In FIG. 27b, ROS was measured in MCF7-Cispl-R cells, compared with MCF7 cells, using an Amplex Red assay. In FIG. 27c, MCF7 and MCF7-MnSOD^K68Q cells were measured by clonogenic cell survival assays, without and with cisplatin exposure, and infected with scrambled (C) or HIF2α shRNA. All experiments were done in triplicate. Error bars are ± 1 SEM. * p < 0.05.
# [3] = test system: LNCaP-MnSOD^K68Q xenografts; experiment: LNCaP-MnSOD^K68Q hind limb xenograft growth in nude mice; format: in vivo; conditions: GC4419 10 mg/kg, once per week; tumor volumes for 46 days
# Description: (§2) FIGS. 21a-21b are a chart and graph showing that pharmacologically mimicking the activity of deacetylated lysine 68 MnSOD with a manganese pentaazamacrocyclic dismutase mimetic both inhibited the growth of LNCaP-ENZR tumors and reversed the enzalutamide resistance in LNCaP-ENZR / LNCaP—MnSOD^K68Q cells and tumors. In FIG. 21a, clonogenic cell survival experiments were performed in LNCaP-ENZR (left two bars) and LNCaP—MnSOD^K68Q (right two bars) treated with ENZ, with or without GC4419 (20 µM) for 5 days. […] Tumor volumes were measured three times a week for 46 days. For each group n=10. Error bars ± 1 SEM. All experiments done in triplicate. **p < 0.01.
# MCF7-MnSOD^K68Q cells = experiment: Ki-67 staining in MCF7-MnSOD^K68Q cells; format: cell-based, human; conditions: 5 µM GC4419 for 5 days
# Description: MCF7-MnSOD^K68Q cells (in FIGS. 17a and 17b) and T47D-MnSOD^K68Q cells (in FIGS. 17c and 17d) were treated with 5 µM GC4419 and/or 1 µM 4-hydroxy-Tam for 5 days, and then stained for Ki-67 as well as DAPI. Quantifications of average Ki-67 intensity are shown in the bar graphs. In FIG. 17e, MCF7 and MCF7-HTR cells were implanted into both hind limbs of nude mice and tumor volumes were measured every 3 days for 6 weeks and the number of tumors that successfully implanted versus the total number of mice infected with MCF7 and MCF7-HTR as well as the average tumor weight and tumor size are shown. Representative images are shown. All experiments were done in triplicate. Error bars represent ± 1 SEM. ***p < 0.001.
# Cells seeded on glass coverslips were fixed in 4% paraformaldehyde and then blocked with 1% BSA and 10% normal goat serum in 1x PBS. Cells were incubated with anti-Ki-67 (c-bioscience) antibody in 1x PBS followed by incubation with goat anti-rabbit IgG conjugated with Alexa Fluor 647 (Invitrogen) in 1x PBS with 5% goat serum. Cells were washed in 1x PBS, mounted, and imaged with a fluorescence microscope. Fluorescence images were captured using a laser scanning confocal microscope (Nikon A1 R). The paired images in all the figures were collected at the same gain and offset settings. Post-collection processing was applied uniformly to all paired images.
# LNCaP-MnSOD^K68Q cells = experiment: Clonogenic cell survival in LNCaP-MnSOD^K68Q cells; format: cell-based; conditions: GC4419 20 µM for 5 days, treated with ENZ
# Description: In FIG. 20a, clonogenic cell survival experiments were done in LNCaP-ENZR cells infected with lenti-MnSOD^K68R or lenti-MnSOD^K68Q, in the presence of ENZ (10 µM). In FIG. 20b, clonogenic survival assays were done in LNCaP cells infected with lenti-MnSOD^WT, lenti-MnSOD^K68R, and lenti-MnSOD^K68Q, and selected with neomycin, and placed in 10 µM of ENZ for 72 hr. Error bars ± 1 SEM. Experiments were done in triplicate. **p < 0.01.
# as §2
# [4] = test system: Tam resistant as well as loss of Sirt3 tumor cell lines; experiment: In vitro Tam resistance in Tam resistant and loss of Sirt3 tumor cell lines; format: cell-based; conditions: data not shown
# [5] = test system: Sirt3^-/--MT-SIRT3^WT allografts; experiment: Sirt3-/--MT-SIRT3^WT mammary allograft tumor growth (bioluminescence); format: in vivo; conditions: GC4419 by IP every other day for five weeks; compared to control mice
# Description: FIGS. 29a-29b are plots showing that the growth of murine mammary allograft tumors is inhibited by exposure to the MnSOD mimic GC4419 much more in cells without expression of deacetylation competent SIRT3. […] Mice were subsequently injected with luciferin potassium (120 mg/kg) every week and signal intensity will be quantified. Error bars represent one SD from the mean.
# These cell lines were subsequently infected with and selected to express either a SIRT3 wild-type (Sirt3^-/--MT-SIRT3^WT) or deacetylation activity null (Sirt3^-/--MT-SIRT3^DN) gene and a lenti-luciferase to assess tumor growth by bioluminescence. Allograft tumor mice were split into four groups: (1) control, untreated Sirt3^-/--MT-SIRT3^DN; (2) GC4419 treated Sirt3^-/--MT-SIRT3^DN; (3) control, untreated Sirt3^-/--MT-SIRT3^WT; and (4) GC4419 treated Sirt3^-/--MT-SIRT3^WT. […] Accordingly, it was shown that the growth of murine mammary allograft tumors is inhibited by pharmacologically mimicking the activity of deacetylated lysine 68 MnSOD with a manganese pentaazamacrocyclic dismutase mimetic much more in tumors without deacetylation competent SIRT3. Further, this supports that selection of tumors displaying an AcK68 signature could increase response to treatment with a MnPAM dismutase mimetic (or other methods) alone or in combination with other therapies.
# MCF7-Cispl-R cells [6] = experiment: Cisplatin resistance phenotype of MCF7-Cispl-R cells (clonogenic cell survival); format: cell-based, human; conditions: treated with GC4419
# Description: as §1
# To evaluate clonogenic cell survival by testing cell growth at low density, 500 exponentially growing cells were plated in triplicate in 6-well plates using serial dilution, and the growth of the cells was examined throughout 14 days in regular growth medium. Cells were fixed with 70% ethanol for 5 minutes and then stained with 0.5% crystal violet (in 25% methanol) for 20 minutes. Photos of stained plates were taken, and colonies of more than 50 cells were counted and used to calculate clonogenic survival.
smiles,measurement,setting,value
[Cl][Mn][Cl].c1cc2nc(c1)CN[C@H]1CCCC[C@@H]1NCCN[C@H]1CCCC[C@@H]1NC2 [GC4419],hydroxy-Tam resistance (clonogenic cell survival),MCF7-HTR cells,became sensitive to hydroxy-Tam
same,SOX2 and OCT4 levels,MCF7-Cispl-R cells [1],decreased SOX2 and OCT4 levels
same,cell ROS levels,MCF7-Cispl-R cells [2],decreased cell ROS levels
same,xenograft growth,[3],significant inhibition of xenograft growth
same,Ki-67 IHC staining,MCF7-MnSOD^K68Q cells,reversed the increase in Ki-67 IHC staining
same,ENZR phenotype (clonogenic cell survival),LNCaP-MnSOD^K68Q cells,converted to a sensitive phenotype
same,Tam resistance,[4],reverses Tam resistance
same,tumor growth,[5],little change in tumor growth
same,Cispl-R phenotype,MCF7-Cispl-R cells [6],converted the Cispl-R cells to a sensitive phenotype
